Measurements published in US10111902B2, “Polymers for reversing heparin-based anticoagulation” (University of British Columbia, priority 2011, dated 2018).

Legend:
ctDNA = experiment: Binding affinity of polymers for ctDNA; settings: buffered water (pH 7.2), 50 mM NaCl, 25° C
blood = experiment: Blood compatibility at 1 mg/ml; settings: footnote [3] to protamine: showed complement activation, platelet activation, behaved like an anticoagulant, massive hemolysis

C50 (nM) [1] (ctDNA): 2788 nM
SMILES: NCCCNCCCCNCCCN [Tetramine (spermine), spermine]
Blood compatibility at 1 mg/ml (blood): poor
